Data reported in patent publication US20240383908A1, “SYNTHESIS AND APPLICATION OF PHOSPHATASE DEGRADER” (HINOVA PHARMACEUTICALS INC., priority 2021, published 2024).

Tests used:
NCI-H358 = assay: Inhibition of cell proliferation, NCI-H358 (CCK-8); type: cell-based; conditions: Homo sapiens, NCI-H358 cells, read-out: Inhibition activity on the proliferation of different cell lines NCI-H358 (IC50)
Procedure: (§1) (1) MV-411 cells were cultured in the cell culture medium, and then well-growing cells were selected and inoculated in a 96-well plate at 80 μL/well, with 2×10^4 cells/well. The plate was incubated overnight in a 5% CO2 cell incubator at 37° C.
(§2) (2) 10 mM storage solution of each drug was prepared using dimethylsulfoxide (DMSO). The stock solution was diluted in a ratio of 1:3 with DMSO before use, and then the solution was serially diluted in a ratio of 1:3, to obtain 9 gradient concentrations. Each concentration was further diluted with the medium in a ratio of 1:200 (to ensure that the DMSO concentration in the culture system was 0.1%). Two wells were set for each concentration. 20 μL of each compound solution was added to the cell culture well (with a final concentration of 10 μM, 3.3 μM, 1.1 μM . . . ). The plate was gently shaken and mixed. Additionally, 3 negative control wells (only containing cells) and 3 blank control wells (only containing the medium) were included (6 wells were each added with 20 μL of DMSO diluted with the medium in a ratio of 1:200).
(§3) (1) After 5 days of cultivation, 10 μL of CCK-8 was added to each well, and then the plate was further cultured for 3 h at 37° C. in a 5% CO2 cell incubator.
(§4) (2) The absorbance (OD value) was measured at 450 nm with a multifunctional microplate reader. (3) The data were analyzed using the Dose-response-inhibition equation in GraphPad Prism8 software to obtain the IC50 value.
(§5) Using a similar method, the IC50 value (nM) for the inhibitory activity of the compound according to the present invention against different cell lines was obtained, and the results are shown in Table 3 (++++: IC50>5 μM; +++: 1 μM<IC50<5 μM; ++: IC50<1 μM).

KYSE 520 = assay: Inhibition of cell proliferation, KYSE 520 (CCK-8); type: cell-based; conditions: Homo sapiens, KYSE 520 cells, read-out: Inhibition activity on the proliferation of different cell lines KYSE 520 (IC50)
Procedure: as §1, §2, §3, §4, §5

Row | IC50 (NCI-H358) [nM] | SMILES | IC50 (KYSE 520) [nM]
1 | 1000 to 5000 | CC1(N)CCN(c2cnc(Sc3cccc(NC(=O)CCCCCCCCN4CCN(c5ccc(C(=O)NCc6ccc7c(c6)CN(C6CCC(=O)NC6=O)C7=O)nn5)CC4C(F)(F)F)c3)cn2)CC1 (stereo not shown) [Compound 174] | 
2 | 1000 to 5000 | NC1(CO)CCN(c2cnc(Sc3cccc(NC(=O)CCCCCCN4CC5(CCN(c6ccc(C(=O)NCc7ccc8c(c7)CN(C7CCC(=O)NC7=O)C8=O)nn6)C5)C4)c3)cn2)CC1 (stereo not shown) [Compound 168] | 
3 | 1000 to 5000 | CCC1(N)CCN(c2cnc(Sc3cccc(NC(=O)CCCCCCN4CC5(CCN(c6ccc(C(=O)NCc7ccc8c(c7)CN(C7CCC(=O)NC7=O)C8=O)nn6)C5)C4)c3)cn2)CC1 (stereo not shown) [Compound 161] | 
4 | < 1000 | CC1(N)CCN(c2cnc(Sc3cccc(NC(=O)CCCCCCCCN4CCN(c5ccc(C(=O)NCc6ccc7c(c6)CN(C6CCC(=O)NC6=O)C7=O)nn5)CC4)c3)cn2)CC1 (stereo not shown) [Compound 63] | 
5 | 1000 to 5000 | Cc1ncsc1-c1ccc([C@H](C)NC(=O)[C@@H]2C[C@@H](O)CN2C(=O)[C@@H](NC(=O)CCCCCCCCN2CCN(C(=O)CCC(=O)Nc3cccc(Sc4ncc(N5CCC(C)(N)CC5)nc4N)c3Cl)CC2)C(C)(C)C)cc1 [Compound 999] | 1000 to 5000

Row | SMILES | IC50 (NCI-H358) [nM] | IC50 (KYSE 520) [nM]
6 | CC1(N)CCN(c2cnc(Sc3cccc(NC(=O)CCCCCCCCN4C5CCC4CN(c4ccc(C(=O)NCc6ccc7c(c6)CN(C6CCC(=O)NC6=O)C7=O)nn4)C5)c3)cn2)CC1 (stereo not shown) [Compound 119] | < 1000 | 
